Test results reported in ChEMBL document CHEMBL3244369, “Synthesis and inhibition analysis of 2(4)-imino-4(2)-amino-2,4-dideoxyriboflavin, a dual antagonist of riboflavin and folinic acid” (J Med Chem, 1977).
Calls of active or inactive are those of the source. No cut-off for these calls is given here.

Legend:
Type in all cases: functional
[1] = Antifolate activity against Lactobacillus leichmannii at 20 ug/ml
[2] = Antifolate activity against Lactobacillus leichmannii at 7 ug/ml
[3] = Antifolate activity against Lactobacillus leichmannii at 20 to 60 ug/ml in presence of 0.02 ug/ml of folinic acid
[4] = Antifolate activity against Lactobacillus leichmannii at 150 ug/ml in presence of 0.02 ug/ml of folinic acid and 250 ug/ml riboflavin
[5] = test system: Lactobacillus leichmannii; assay: Inhibition index, ratio of antifolate activity against Lactobacillus leichmannii in presence of 0.02 ug/ml of folinic acid to antifolate activity against Lactobacillus leichmannii absence of folinic acid
[6] = test system: Lactobacillus leichmannii; assay: Inhibition index, ratio of antifolate activity against Lactobacillus leichmannii in presence of 250 ug/ml of riboflavin to antifolate activity against Lactobacillus leichmannii absence of riboflavin

Cc1cc2nc3c(N)nc(=N)nc-3n(C[C@H](O)[C@H](O)[C@H](O)CO)c2cc1C
growth inhibition (GI) [1]: Active
growth inhibition (GI) [2]: Active
growth inhibition (GI) [3]: inactive
growth inhibition (GI) [4]: inactive
Ratio [5]: 6000
Ratio [6]: 1.5
